Assay in all cases: ERK1/2 phosphorylation
What all share (format): cell-based

One test deals with T1, hCTR G369A (Homo sapiens, UniProt P30988, G369A).
T1 construct: c-Myc (N); expressed in transfected cells
T1 sequence (P30988 25-474 G369A): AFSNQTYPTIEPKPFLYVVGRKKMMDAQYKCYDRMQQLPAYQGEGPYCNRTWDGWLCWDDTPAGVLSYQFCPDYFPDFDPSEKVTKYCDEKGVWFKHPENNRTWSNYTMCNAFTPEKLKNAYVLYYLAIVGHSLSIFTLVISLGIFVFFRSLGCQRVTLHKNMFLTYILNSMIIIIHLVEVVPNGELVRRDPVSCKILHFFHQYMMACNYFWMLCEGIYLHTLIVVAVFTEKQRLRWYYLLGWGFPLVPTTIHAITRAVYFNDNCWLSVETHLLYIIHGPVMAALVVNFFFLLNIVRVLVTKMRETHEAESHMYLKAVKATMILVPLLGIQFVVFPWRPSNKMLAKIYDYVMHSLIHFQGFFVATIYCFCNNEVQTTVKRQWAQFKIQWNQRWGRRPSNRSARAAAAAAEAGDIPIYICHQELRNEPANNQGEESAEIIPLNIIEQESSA
The conditions noted are these: CV1-FlpIn cells, mean ± S.E.M.; for Emax: pERK maximal response; for EC50: pERK, three-parameter logistic fit. A digest of the protocol:
(§1)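 Read-out is phospho-ERK1/2, reported relative to the 10% FBS maximum taken at 6 min. Wells held 2.5 × 10^4 cells seeded the night before. Potency and efficacy reflect functional affinity, efficacy and stimulus-response coupling combined.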

Another test concerns the target T2, hCTR Y372A (Homo sapiens, UniProt P30988, Y372A).
T2 construct: c-Myc (N); expressed in transfected cells
T2 sequence (P30988 25-474 Y372A): T1 sequence (P30988 25-474 G369A) with A345G, Y348A
The conditions noted are these: CV1-FlpIn cells, mean ± S.E.M.; for Emax: pERK maximal response. An outline of the steps: as §1

In another test the target is T3, hCTR C289A (Homo sapiens, UniProt P30988, C289A).
T3 construct: c-Myc (N); expressed in transfected cells
T3 sequence (P30988 25-474 C289A): T1 sequence (P30988 25-474 G369A) with C265A, A345G
The conditions noted are these: CV1-FlpIn cells, mean ± S.E.M.; for Emax: pERK maximal response. An outline of the steps:
as §1

The target of a further test is T4, hCTR N286A (Homo sapiens, UniProt P30988, N286A).
T4 construct: c-Myc (N); expressed in transfected cells
T4 sequence (P30988 25-474 N286A): T1 sequence (P30988 25-474 G369A) with N262A, A345G
The conditions noted are these: CV1-FlpIn cells, mean ± S.E.M.; for Emax: pERK maximal response; for EC50: pERK, three-parameter logistic fit. An outline of the steps:
as §1

The target in the next test is T5, hCTR S364A (Homo sapiens, UniProt P30988, S364A).
T5 construct: c-Myc (N); expressed in transfected cells
T5 sequence (P30988 25-474 S364A): T1 sequence (P30988 25-474 G369A) with S340A, A345G
The conditions noted are these: CV1-FlpIn cells, mean ± S.E.M.; for Emax: pERK maximal response; for EC50: pERK, three-parameter logistic fit. An outline of the steps: as §1

Setting [1] is: pERK, three-parameter logistic fit.

Structures are written as SMILES. Substitutions are numbered along the chain they refer to. Where a SMILES comes first, the peptide text is derived from it. Bridges are numbered along the chain shown (N, C = ends).

With `CC[C@H](C)[C@H](NC(=O)[C@H](C)NC(=O)[C@@H](NC(=O)[C@H](CCC(N)=O)NC(=O)[C@@H]1CCCN1C(=O)[C@H](Cc1ccccc1)NC(=O)[C@@H](NC(=O)[C@H](Cc1c[nH]cn1)NC(=O)[C@H](Cc1ccccc1)NC(=O)[C@H](CCCCN)NC(=O)[C@H](CC(N)=O)NC(=O)[C@H](Cc1ccccc1)NC(=O)[C@H](CC(=O)O)NC(=O)[C@H](CCC(N)=O)NC(=O)[C@@H](NC(=O)[C@H](Cc1ccc(O)cc1)NC(=O)[C@@H](NC(=O)CNC(=O)[C@H](CC(C)C)NC(=O)[C@H](CCSC)NC(=O)[C@@H]1CSSC[C@H](N)C(=O)NCC(=O)N[C@@H](CC(N)=O)C(=O)N[C@@H](CC(C)C)C(=O)N[C@@H](CO)C(=O)N[C@@H]([C@@H](C)O)C(=O)N1)[C@@H](C)O)[C@@H](C)O)[C@@H](C)O)[C@@H](C)O)C(=O)NCC(=O)N[C@H](C(=O)NCC(=O)N[C@@H](C)C(=O)N1CCC[C@H]1C(N)=O)C(C)C` [hCT], the Emax at hCTR G369A was determined as 141 ± 9%; on hCTR Y372A, 46 ± 4%; on hCTR C289A it was 40 ± 8%; at hCTR N286A, 52 ± 5%; on hCTR S364A, 135 ± 10%.
For `CC(C)C[C@H](NC(=O)CNC(=O)[C@H](C)NC(=O)[C@H](CC(C)C)NC(=O)[C@H](CCCNC(=N)N)NC(=O)[C@H](Cc1cnc[nH]1)NC(=O)[C@@H](NC(=O)[C@@H](NC(=O)[C@@H]1CSSC[C@H](NC(=O)[C@H](C)N)C(=O)N[C@@H](CC(=O)O)C(=O)N[C@@H]([C@@H](C)O)C(=O)N[C@@H](C)C(=O)N[C@@H]([C@@H](C)O)C(=O)N1)C(C)C)[C@@H](C)O)C(=O)N[C@@H](CC(C)C)C(=O)N[C@@H](CO)C(=O)N[C@@H](CCCNC(=N)N)C(=O)N[C@@H](CO)C(=O)NCC(=O)NCC(=O)N[C@H](C(=O)N[C@H](C(=O)N[C@@H](CCCCN)C(=O)N[C@@H](CC(N)=O)C(=O)N[C@@H](CC(N)=O)C(=O)N[C@@H](Cc1ccccc1)C(=O)N[C@H](C(=O)N1CCC[C@H]1C(=O)N[C@H](C(=O)N[C@@H](CC(N)=O)C(=O)N[C@H](C(=O)NCC(=O)N[C@@H](CO)C(=O)N[C@@H](CCCCN)C(=O)N[C@@H](C)C(=O)N[C@@H](Cc1ccccc1)C(N)=O)C(C)C)[C@@H](C)O)C(C)C)C(C)C)C(C)C` [hαCGRP], the Emax at hCTR G369A stood at 87 ± 14%; on hCTR N286A, 31 ± 5%; on hCTR S364A, 54 ± 6%. Further, the figures for the 50% effective concentration (EC50) at hCTR G369A, on hCTR N286A and at hCTR S364A were 81.3 nM, 12.9 nM and 10.7 nM, respectively.
`CSCC[C@H](NC(=O)CNC(=O)[C@H](CO)NC(=O)[C@H](Cc1ccccc1)NC(=O)[C@H](CCCNC(=N)N)NC(=O)[C@H](Cc1c[nH]cn1)NC(=O)[C@H](Cc1ccccc1)NC(=O)[C@H](CC(N)=O)NC(=O)[C@H](CC(N)=O)NC(=O)[C@H](CC(C)C)NC(=O)[C@H](CC(N)=O)NC(=O)[C@H](CCCNC(=N)N)NC(=O)[C@H](Cc1c[nH]c2ccccc12)NC(=O)[C@H](Cc1ccc(O)cc1)NC(=O)[C@H](C)NC(=O)[C@H](CO)NC(=O)[C@H](CC(C)C)NC(=O)[C@@H](NC(=O)[C@@H]1CSSC[C@H](N)C(=O)N[C@@H](CO)C(=O)N[C@@H](CC(N)=O)C(=O)N[C@@H](CC(C)C)C(=O)N[C@@H](CO)C(=O)N[C@@H]([C@@H](C)O)C(=O)N1)C(C)C)C(=O)NCC(=O)N[C@@H](Cc1ccccc1)C(=O)NCC(=O)N1CCC[C@H]1C(=O)N[C@@H](CCC(=O)O)C(=O)N[C@H](C(=O)N1CCC[C@H]1C(N)=O)[C@@H](C)O` [pCT] (H-CSNLSTCVLSAYWRNLNNFHRFSGMGFGPETP-NH2; disulfide 1-7): the maximum response (Emax) came out at 128 ± 8% at hCTR G369A; 26 ± 4% at hCTR Y372A; 38 ± 4% at hCTR C289A; 46 ± 5% at hCTR N286A; 127 ± 12% on hCTR S364A. For the same compound, the EC50 on hCTR G369A is 5.25 nM; on hCTR Y372A (setting [1]), 19.1 nM; on hCTR C289A (setting [1]), 4.27 nM; on hCTR N286A it was 1.2 nM; at hCTR S364A, 3.63 nM.
For `CC(C)C[C@H](NC(=O)[C@H](CC(N)=O)NC(=O)[C@H](CC(N)=O)NC(=O)[C@H](CO)NC(=O)[C@H](CO)NC(=O)[C@H](CCCNC(=N)N)NC(=O)[C@@H](NC(=O)[C@H](CC(C)C)NC(=O)[C@H](Cc1ccccc1)NC(=O)[C@H](CC(N)=O)NC(=O)[C@H](C)NC(=O)[C@H](CC(C)C)NC(=O)[C@H](CCCNC(=N)N)NC(=O)[C@H](CCC(N)=O)NC(=O)[C@@H](NC(=O)[C@H](C)NC(=O)[C@@H]1CSSC[C@H](NC(=O)[C@@H](N)CCCCN)C(=O)N[C@@H](CC(N)=O)C(=O)N[C@@H]([C@@H](C)O)C(=O)N[C@@H](C)C(=O)N[C@@H]([C@@H](C)O)C(=O)N1)[C@@H](C)O)C(C)C)C(=O)NCC(=O)N1CCC[C@H]1C(=O)N[C@H](C(=O)N[C@@H](CC(C)C)C(=O)N1CCC[C@H]1C(=O)N1CCC[C@H]1C(=O)N[C@H](C(=O)N[C@@H](CC(N)=O)C(=O)N[C@H](C(=O)NCC(=O)N[C@@H](CO)C(=O)N[C@@H](CC(N)=O)C(=O)N[C@H](C(=O)N[C@@H](Cc1ccc(O)cc1)C(N)=O)[C@@H](C)O)C(C)C)[C@@H](C)O)C(C)C` [rAmy], the maximal effect (Emax) at hCTR G369A stood at 63 ± 8%; on hCTR N286A it was 41 ± 6%; on hCTR S364A, 66 ± 9%.
For `CC(C)C[C@H](NC(=O)[C@H](CCCCN)NC(=O)CNC(=O)[C@H](CC(C)C)NC(=O)[C@@H](NC(=O)[C@@H]1CSSC[C@H](N)C(=O)N[C@@H](CO)C(=O)N[C@@H](CC(N)=O)C(=O)N[C@@H](CC(C)C)C(=O)N[C@@H](CO)C(=O)N[C@@H]([C@@H](C)O)C(=O)N1)C(C)C)C(=O)N[C@@H](CO)C(=O)N[C@@H](CCC(N)=O)C(=O)N[C@@H](CCC(=O)O)C(=O)N[C@@H](CC(C)C)C(=O)N[C@@H](Cc1c[nH]cn1)C(=O)N[C@@H](CCCCN)C(=O)N[C@@H](CC(C)C)C(=O)N[C@@H](CCC(N)=O)C(=O)N[C@H](C(=O)N[C@@H](Cc1ccc(O)cc1)C(=O)N1CCC[C@H]1C(=O)N[C@@H](CCCNC(=N)N)C(=O)N[C@H](C(=O)N[C@@H](CC(N)=O)C(=O)N[C@H](C(=O)NCC(=O)N[C@@H](CO)C(=O)NCC(=O)N[C@H](C(=O)N1CCC[C@H]1C(N)=O)[C@@H](C)O)[C@@H](C)O)[C@@H](C)O)[C@@H](C)O` [sCT], the Emax on hCTR G369A turned out to be 115 ± 4%; on hCTR Y372A, 39 ± 3%; at hCTR C289A it was 64 ± 11%; on hCTR N286A, 59 ± 5%; at hCTR S364A, 106 ± 4%.

As usually defined, the Emax is the maximal effect, on the per cent scale that the assay sets. The term EC50 denotes the midpoint of the concentration-response curve.

The record behind these values is paper PMC5908784, “Extracellular loops 2 and 3 of the calcitonin receptor selectively modify agonist binding and efficacy” (Biochemical Pharmacology, 2018).
